Measured values from paper PMC11280390, “Synthesis of Nitrostyrylthiazolidine-2,4-dione Derivatives Displaying Antileishmanial Potential” (Pharmaceuticals, 2024).
Converted amounts (≈) assume the structure as drawn. “And” between values parts separate entries of the source, which are not always exact repeats. Equal values may be shown once. Read-outs that look alike come from different tables or passages of the source.

What was measured:
[1] = Lipophilicity by Chromatographic Hydrophobicity Index (CHI); format: physicochemical; conditions: pH 7.4, CHI; read-out: CHI logD7.4
Description: B: acetonitrile, at a flow rate of 0.300 mL/min and 0.5-µL injections. The validity of the CHI versus retention time was established on a reference mixture containing theophylline, phenyltetrazole, benzimidazole, acetophenone, propiophenone, butyrophenone and valerophenone.

[2] = tested on: L. donovani promastigotes overexpressing NTR2; test: microbe, parasite or virus in culture; format: cell-based; conditions: Leishmania donovani, read-out: EC50 Values, NTR2 OE
Description: (§1) EC50 values were determined as previously described. Nifurtimox was used as a positive control for activation via NTR1 [38] while delamanid was used as a positive control for activation via NTR2 [39].

[3] = tested on: L. donovani promastigotes overexpressing NTR1; test: microbe, parasite or virus in culture; format: cell-based; conditions: Leishmania donovani, read-out: EC50 Values, NTR1 OE
Description: as §1

[4] = tested on: Leishmania infantum promastigotes; test: In vitro antileishmanial activity on L. infantum promastigotes (MTT, 72 h); format: cell-based; conditions: Leishmania infantum, L. infantum promastigotes, MTT, read-out: Anti-L. infantum Promastigote Activity EC50
Description: Luciferase-expressing Leishmania infantum was kindly provided by Professor Thierry Lang of the Institut Pasteur. L. infantum promastigotes were routinely grown at 27 °C in Schneider’s Drosophila Medium (Dominique […] SAS, Bernolsheim, France) supplemented with 10% fetal calf serum, 2% human urine, sodium pyruvate 0.04 mM, hemin 0.1 µg/mL, HEPES 5 mM, streptomycin 100 µg/mL, penicillin 100 U/mL, L-glutamine 2 mM (culture medium). The in vitro evaluation of the antileishmanial activity of the tested compound on L. infantum promastigotes forms was assessed according to the Mosmann protocol with slight modifications. […] Appropriate controls treated with DMSO, Miltefosine, Amphotericin B and Fexinidazole sulfone (reference drugs purchased from Sigma-Aldrich, Saint-Louis, MO, USA) were added to each set of experiments. The plates were incubated at 27 °C for 72 h, Then, each plate-well was microscope-analyzed to detect any precipitate formation. Afterward, 20 µL of MTT (3-(4,5-dimethylthiazol-2-yl)-2,5-diphenyltetrazolium bromide) (Sigma-Aldrich, Saint-Louis, MI, USA) solution (5 mg/mL in PBS) were added to each well and incubated at 27 °C for 4 h. The reaction was then stopped by the addition of 100 µL of 10% sodium dodecyl sulfate—50% isopropanol. Plates were shaken vigorously at 400 rpm for 10 min. […] EC50 values represent the mean value calculated from at least three separate experiments.

[5] = Aqueous solubility in PBS by shake-flask method; format: physicochemical; conditions: 25 °C, pH 7.4, aqueous buffer, thermodynamic from solid, PBS pH 7.4, 25 °C
Description: Briefly, an excess of compound (approx. 2 mg) was stirred in PBS (0.5 mL, 0.15 M, pH 7.4) at 25 °C for 72 h. A 100 µL sample was drawn, any excess material removed by centrifugation, and diluted tenfold with methanol/water 1:1 before HPLC-UV quantification using a pre-established calibration curve (PLRP-S column (Agilent), 3 µm particle size, 100 A porosity, 50 × 2.1 mm internal dimensions). Eluent: isocratic acetonitrile/water/formic acid 80:20:0.1, 0.4 mL/min, detection at 320 nm, 2-µL injections).

THP-1 cell line = test: In vitro cytotoxicity on the human monocyte THP-1 cell line (MTT, 72 h); format: cell-based; conditions: THP-1 CC50 / L. infantum promastigote EC50
Description: (§2) The undifferentiated THP1 human monocyte cells (acute monocytic leukemia cell line purchased from ATCC, ref TIB-202) were routinely grown in RPMI 1640 medium (Life Technologies, Saint-Aubin, France) supplemented with 10% FCS (Life Technologies, Saint-Aubin, France), 100 U/mL penicillin, 100 µg/mL streptomycin and 2 mM L-glutamine at 37 °C, 5% CO2. The culture was maintained between 3.10^5 and 8.10^5 cells/mL. […] Wells were washed with RPMI and 100 µL of fresh complete medium was added. […] Then, 100 µL of MTT solution (0.5 mg/mL in medium) was added to each well. Cells were incubated for 2 h at 37 °C. […] Plates were shaken vigorously (700 rpm) for 10 min. […] (Palo Alto, CA, USA).

[6] = as above; format: cell-based; conditions: human; THP-1, 72 h, MTT
Description: as §2

[7] = tested on: wild-type L. donovani (LdBOB) promastigotes; test: Antileishmanial activity against wild-type L. donovani promastigotes; format: cell-based; conditions: Leishmania donovani, read-out: EC50 Values, WT
Description: as §1

HepG2 cell line = test: In vitro cytotoxicity on the human hepatic HepG2 cell line (MTT, 72 h)
Description: (§3) HepG2 cell line (hepatocarcinoma cell line purchased from ATCC, ref HB-8065) was maintained at 37 °C, 5% CO2 with 90% humidity in MEM supplemented with 10% fetal bovine serum, 1% L-glutamine (200 mM) and penicillin (100 U/mL)/streptomycin ([…]) (complete MEM medium). The tested molecules’ cytotoxicity was assessed according to the method of Mosmann with slight modifications. Briefly, 5 × 10^3 cells in 100 μL of complete medium were inoculated into each well of 96-well plates and incubated at 37 °C in a humidified 5% CO2. After 24 h incubation, 100 μL of medium with various product concentrations dissolved in DMSO (final concentration less than 0.5% v/v) were added and the plates were incubated for 72 h at 37 °C. Triplicate assays were performed for each sample. Each plate well was then microscope-examined to detect possible precipitate formation before the medium was aspirated from the wells. Then, 100 μL of MTT (3-(4,5-dimethyl-2-thiazolyl)-2,5-diphenyl-2H-tetrazolium bromide) solution (0.5 mg/mL in medium without FCS) were then added to each well. Cells were incubated for 2 h at 37 °C, following which the MTT solution was removed and DMSO (100 μL) was added to dissolve the resulting blue formazan crystals. Plates were shaken vigorously (700 rpm) for 10 min. The absorbance was measured at 570 nm with 630 nm as reference wavelength using a TECAN Infinite F-200 spectrophotometer (Tecan Trading AG, Männedorf, Switzerland). DMSO was used as blank and doxorubicin (purchased from Sigma Aldrich, Saint Louis, MI, USA) as positive control. Cell viability was calculated as a percentage of control (cells incubated without compound). […] CC50 values represent the mean value calculated from three separate experiments.

[8] = as above; conditions: human, HepG2 cells (hepatocarcinoma cell line, ATCC HB-8065), HepG2 Cytotoxicity CC50, HepG2, 72 h, MTT
Description: as §3

N#CCN1C(=O)S/C(=C\c2cccc([N+](=O)[O-])c2)C1=O [Compound 14c, (Z)-2-(5-(3-Nitrobenzylidene)thiazolidine-2,4-dion-3-yl)acetonitrile]
chromatographic logD [1]: 2.85 | EC50 [2]: 18.5 µM | EC50 [3]: 3.78 ± 0.313 µM | EC50 [4]: 7 ± 2.96 µM | solubility at 72 h ([5]; read-out: PBS Solubility (log S) (converted)): 15.8 µM (≈ 4.58 µg/mL) | solubility at 72 h ([5]; read-out: PBS solubility): 16 µM (≈ 4.63 µg/mL) | melting point: 173 to 175 °C | Selectivity index (THP-1) (THP-1 cell line): 17 | CC50 at 72 h [6]: 121 ± 9 µM | EC50 [7]: 22.1 µM | Selectivity INDEX (SI = CC50/EC50) (HepG2 cell line; HepG2 CC50 / L. infantum promastigote EC50): 14 and 14.4 | CC50 (HepG2 cell line; read-out: HepG2 Cytotoxicity CC50, HepG2, 72 h, MTT): 101 ± 19.3 µM | CC50 at 72 h [8]: 101 µM
